{"source": "patent US20240300977A1", "about": "“INHIBITORS OF DNA-DEPENDENT PROTEIN KINASE AND COMPOSITIONS AND USES THEREOF” (Intellia Therapeutics, Inc., priority 2021, published 2024)", "key": {"NK cells [1]": {"tested_on": "NK cells", "experiment": "Percent editing at AAVS1 in NK cells by NGS", "assay_type": "cell-based, human", "experimental": "Genomic DNA was extracted using QuickExtract™ DNA Extraction Solution (Lucigen, Cat. QE09050) according to manufacturer's protocol.\nTo quantitatively determine the efficiency of editing at the target location in the genome, next generation sequencing was utilized to identify the presence of insertions and deletions introduced by gene editing. […] Primer sequence design was done as is standard in the field.\nAdditional PCR was performed according to the manufacturer's protocols (Illumina) to add chemistry for sequencing. The amplicons were sequenced on an Illumina MiSeq instrument. The reads were aligned to the human (e.g., hg38) reference genome after eliminating those having low quality scores. The resulting files containing the reads were mapped to the reference genome (BAM files), where reads that overlapped the target region of interest were selected and the number of wild-type reads versus the number of reads which contain an insertion or deletion (“indel”) was calculated.\nThe editing percentage (e.g., the “editing efficiency” or “percent editing”) is defined as the total number of sequence reads with insertions or deletions (“indels”) over the total number of sequence reads, including wild type."}, "NK cells [2]": {"tested_on": "NK cells", "experiment": "GFP insertion at AAVS1 in NK cells, flow cytometry", "assay_type": "cell-based, human", "settings": "LNP + AAV, seven days", "procedure": "NK cells were assessed for the impact of DNA protein kinase inhibitors (DNA-PKI) on indel and insertion rates. […] A subset of samples was also treated with AAV encoding a GFP coding sequence flanked by regions of homology to the AAVS1 edit site (SEQ ID NO: 16). NK cells were isolated from a commercially obtained leukopak using the EasySep Human NK Cell Isolation Kit ([…], Cat. No. 17955) according to the manufacturer's protocol. […] NK cells were plated at 50,000 cells per well in triplicate in OpTmizer supplemented as described above with DNA-PKI at concentrations indicated in Tables 10 and 11. […] For a subset of samples, AAV encoding GFP flanked by regions homologous to the AAVS1 edit site were added at a multiplicity of infection (MOI) of 600,000 genome copies following editing. At seven days post LNP composition treatment, cells were phenotyped by flow cytometry to measure GFP insertion rates. Briefly, NK cells were incubated with antibodies targeting CD3 (Biolegend, Cat. No. 317336) and CD56 (Biolegend, Cat. No. 318310). […] NK cells were gated on size, CD3/CD56 status, and GFP expression. High GFP-expressing cells were gated as targeted GFP […] locus and low GFP-expressing cells were gated as episomal retention."}, "T cells [3]": {"tested_on": "T cells", "experiment": "SpyCas9 TRAC editing (indel) in T cells by NGS with or without Compound 4", "assay_type": "cell-based, human", "settings": "day 4 NGS", "procedure": "Upon thaw, T cells were plated at a density of 1.0×10^6 cells/mL in T cell growth media (TCGM) composed of CTS OpTmizer T Cell Expansion SFM and T Cell Expansion Supplement (ThermoFisher Cat. A1048501), 5% human AB serum (GeminiBio, Cat. 100-512) 1× Penicillin-Streptomycin, 1× Glutamax, 10 mM HEPES, 200 U/mL recombinant human interleukin-2 (Peprotech, Cat. 200-02), 5 ng/ml recombinant human interleukin 7 (Peprotech, Cat. 200-07), and 5 ng/mL recombinant human interleukin 15 (Peprotech, Cat. 200-15). T cells were rested in this media for 24 hours, at which time they were activated with T Cell TransAct™, human reagent (Miltenyi, Cat. 130-111-160) added at a 1:100 ratio by volume.\n(§1) 48 hours post-activation, T cells were harvested, centrifuged at 500 g for 5 min, and resuspended at a concentration of 6.41×10^5 T cells/mL in T cell plating media (TCPM): a serum-free version of TCGM containing 400 U/mL recombinant human interleukin-2 (Peprotech, Cat. 200-02), 10 ng/mL recombinant human interleukin 7 (Peprotech, Cat. 200-07), and 10 ng/mL recombinant human interleukin 15 (Peprotech, Cat. 200-15). 50 μL of T cells in TCPM (3.2×10^4 T cells) were added per well to be treated in flat-bottom 96-well plates.\n(§2) LNPs were generated as described in Example 1 at a ratio of 50/38.5/10/1.5 (Lipid A/cholesterol/DSPC/PEG2k-DMG).\n(§3) Mix “A” was serially diluted 1:2 in TCTM, and mixed 1:1 by volume with mix “B”. 25 μL of the resulting solution was added to 3.2×10^4 T cells in 96-well plates.\n(§4) Next, a repair template in the form of an adeno-associated virus (AAV) encoding the HD3 TCR (SEQ ID NO: 18 was diluted in TCTM to 3.84×10^11 genome copies/mL in the presence or absence of Compound 4 diluted to 2 μM. 25 μL of the resulting solution was added to T cells that were treated with LNPs in the prior step. To enable editing assessments by NGS without the interference of repair templates, an arm of this experiment received 25 μL of TCTM with or without Compound 4 diluted to 2 μM in the absence of AAVs.\n(§5) Following the addition of LNPs, repair templates and Compound 4, T cells were incubated at 37° C. for 48 hours, at which time T cells were centrifuged at 500 g for 5 min, resuspended in 200 μL of TCGM and returned to the incubator."}, "T cells [4]": {"tested_on": "T cells", "experiment": "HD3 TCR insertion within TRAC in T cells, flow cytometry", "assay_type": "cell-based, human", "settings": "Spy Cas9 + Compound 4, HD3 TCR AAV, day 7", "procedure": "as §1, §2, §3, §4, §5\nAlso on day 4 post-treatment, cells that received AAV templates were mixed and sub-cultured at a 1:4 ratio (v/v) in TCGM. On day 7 post-treatment, cells that received AAV templates were evaluated by flow cytometry.\nOn day 7 post-LNP treatment, 50 μL of cells were transferred to U-bottom 96-well plates and spun down for 5 min at 500 g. The supernatant was discarded, cells were resuspended in 100 μL of FACS buffer containing Viakrome 808 (Beckman C., Cat. C36628) (1:100), PC5.5 anti-CD3 (Biolegend, Cat. 317336) (1:200), BV421 anti-CD4 (Biolegend, Cat. 317434) (1:100), BV785 anti-CD8 (Biolegend, Cat. 301046) (1:100), and anti-V07.2 (Beckman C., IM3604) (1:50) and stained for 30 min at 4° C. in the dark. Cells were washed once with 200 μL of FACS buffer, resuspended in 100 μL of FACS buffer and processed on a Cytoflex LX flow cytometer."}, "TRAC": {"tested_on": "TRAC", "settings": "human"}, "TRBC": {"tested_on": "TRBC", "experiment": "Off-target site validation, rhAmpSeq", "settings": "gRNA G016239 targeting TRBC; of 92 off-target sites; with the named DNA-PKI or none"}, "T cells [5]": {"tested_on": "T cells", "experiment": "TRAC LNP editing and GFP insertion in activated T cells with DNA-PK inhibitors, flow cytometry", "settings": "GFP positive of the CD3 negative T cells, day 5 post-edit"}}, "data": [{"smiles": "Cc1cc2ncnn2cc1Nc1ncc2c(n1)n(C1CCC3(CC1)CC3)c(=O)n2C", "note": "[Compound 4, 7-methyl-2-((7-methyl-[1,2,4]triazolo[1,5-a]pyridin-6-yl)amino)-9-(spiro[2.5]octan-6-yl)-7,9-dihydro-8H-purin-8-one]", "values": [{"measurement": "Mean percent editing at AAVS1", "setting": "NK cells [1]; DNA-PKI 0.125 uM", "value": 96.77, "unit": "%"}, {"measurement": "Mean percent editing at AAVS1", "setting": "NK cells [1]; DNA-PKI 0.5 uM", "value": 97.67, "unit": "%"}, {"measurement": "Percent of NK cells with high GFP expression (Mean)", "setting": "NK cells [2]; DNA-PKI 0.125 uM", "value": 88.10, "unit": "%"}, {"measurement": "Percent of NK cells with high GFP expression (Mean)", "setting": "NK cells [2]; DNA-PKI 0.5 uM", "value": 90.27, "unit": "%"}, {"measurement": "Mean TRAC Editing %", "setting": "T cells [3]; sgRNA 0 μg/mL, Spy Cas9 + Compound 4", "value": 0.20, "unit": "%"}, {"measurement": "Mean TRAC Editing %", "setting": "T cells [3]; sgRNA 0.026 μg/mL, Spy Cas9 + Compound 4", "value": 48.55, "unit": "%"}, {"measurement": "Mean TRAC Editing %", "setting": "T cells [3]; sgRNA 0.052 μg/mL, Spy Cas9 + Compound 4", "value": 63.45, "unit": "%"}, {"measurement": "Mean TRAC Editing %", "setting": "T cells [3]; sgRNA 0.104 μg/mL, Spy Cas9 + Compound 4", "value": 79.25, "unit": "%"}, {"measurement": "Mean TRAC Editing %", "setting": "T cells [3]; sgRNA 0.209 μg/mL, Spy Cas9 + Compound 4", "value": 89.00, "unit": "%"}, {"measurement": "Mean TRAC Editing %", "setting": "T cells [3]; sgRNA 0.418 μg/mL, Spy Cas9 + Compound 4", "value": 94.45, "unit": "%"}, {"measurement": "Mean TRAC Editing %", "setting": "T cells [3]; sgRNA 0.835 μg/mL, Spy Cas9 + Compound 4", "value": 96.15, "unit": "%"}, {"measurement": "Mean TRAC Editing %", "setting": "T cells [3]; sgRNA 1.67 μg/mL, Spy Cas9 + Compound 4 (2 μM stock, 25 μL added)", "value": 96.10, "unit": "%"}, {"measurement": "Mean CD3^+ Vβ7.2^+ T Cells %", "setting": "T cells [4]; sgRNA 0 μg/mL", "value": 0.79, "unit": "%"}, {"measurement": "Mean CD3^+ Vβ7.2^+ T Cells %", "setting": "T cells [4]; sgRNA 0.026 μg/mL", "value": 35.20, "unit": "%"}, {"measurement": "Mean CD3^+ Vβ7.2^+ T Cells %", "setting": "T cells [4]; sgRNA 0.052 μg/mL", "value": 44.50, "unit": "%"}, {"measurement": "Mean CD3^+ Vβ7.2^+ T Cells %", "setting": "T cells [4]; sgRNA 0.104 μg/mL", "value": 52.60, "unit": "%"}, {"measurement": "Mean CD3^+ Vβ7.2^+ T Cells %", "setting": "T cells [4]; sgRNA 0.209 μg/mL", "value": 56.10, "unit": "%"}, {"measurement": "Mean CD3^+ Vβ7.2^+ T Cells %", "setting": "T cells [4]; sgRNA 0.418 μg/mL", "value": 53.80, "unit": "%"}, {"measurement": "Mean CD3^+ Vβ7.2^+ T Cells %", "setting": "T cells [4]; sgRNA 0.835 μg/mL", "value": 53.30, "unit": "%"}, {"measurement": "Mean CD3^+ Vβ7.2^+ T Cells %", "setting": "T cells [4]; sgRNA 1.67 μg/mL", "value": 49.65, "unit": "%"}, {"measurement": "Sites Validated", "setting": "TRAC", "value": 0}, {"measurement": "Sites Validated", "setting": "TRBC", "value": 0}, {"measurement": "Mean % CD3^−/GFP+ Cells (n = 3)", "setting": "T cells [5]; compound 0.0625 uM", "value": 58.13, "unit": "%"}, {"measurement": "Mean % CD3^−/GFP+ Cells (n = 3)", "setting": "T cells [5]; compound 1 uM", "value": 80.07, "unit": "%"}]}]}
